# Assay results taken from the NIST ThermoML archive (doi:10.1016/j.jct.2017.05.041).
# Numbers after ± are expanded uncertainties.
# Conditions: 293 K; 101.33 kPa; Crystal; X-ray diffraction
smiles,measurement,value
NCC1(CC(=O)O)CCCCC1.O [2-(1-(aminomethyl)cyclohexyl)acetic acid monohydrate],mass density,1210 ± 12 kg/m3
NCC1(CC(=O)O)CCCCC1 [2-(1-(aminomethyl)cyclohexyl)acetic acid],mass density,1239 ± 10 kg/m3
